In series [1] the test system is human gastric explants. Description: Ex vivo toxicity assay, LDH release from human gastric explants. Format: cell-based. As to conditions: peptides 100 µM, CTAB 300 µM, % of total release. The method, then:
To further evaluate the innocuity of the peptides, ex vivo experiments were performed using human explants as previously described. Briefly, human gastric tissue samples were obtained from patients undergoing surgery at the Hospital Laveran (Marseille, France), unit of gastrointestinal surgery according to a collaborative clinical transfer project. The procedures were approved by the French ethic committee (CODECOH n° DC-2019-3402). All patients agreed for the use of their tissues for research purposes. Samples were taken from healthy patients during sleeve gastrectomy from macroscopically unaffected area as identified by the surgeons. After resection, the specimens were placed in ice-cold oxygenated sterile DMEM solution containing 1% streptomycin/penicillin solution and 50 μg/mL gentamycin and were directly transferred to the laboratory within 15 min on ice. Gastric tissues were extensively washed and maintained in ice-cold culture media containing 1% streptomycin/penicillin solution and 50 μg/mL gentamycin. Tissues were cleaned from vascular vessels and conjunctive tissue using forceps under binocular microscope. Gastric explants (wet weight of 20–30 mg) were then isolated from the cleaned resections using surgical punch (diameter of 0.5 cm^2). […] Finally, the explants were washed three times with culture media without antibiotics and transferred into 24-well plates before being incubated in RPMI media without fetal bovine serum, antibiotics and phenol red at 37 °C in the 5% CO2 incubator with 100 µM of peptides for 2, 4 or 8 h. Phenol red was omitted from the culture media since it interferes with the lactate dehydrogenase (LDH) assay. The detergent cetyl-trimethylammonium bromide (CTAB) at 300 µM was used as positive control of tissue damages. At the end of the incubation, the explants were collected and washed three times with PBS^++ and were fixed overnight at 4 °C with PFA diluted at 4% in PBS. After that, gastric explants were washed twice with PBS and were included in an inclusion medium (TFM-EMS), in transverse position to allow cutting in the crypt-villosity axis using cryostat (Leica CM3050) (Leica Microsystems, Nanterre, France). Four sections of 5 µm thickness were obtained per explant, each section being separated by 100 µm from the next in order to cover all the tissue. Explants were then stained using hematoxylin and eosin (H&E) staining protocol. Briefly, samples were incubated for 8 min in hematoxylin (Sigma-Aldrich) and then allowed to stain by incubation with water for 2 min. Then explants were incubated for 1 min in eosin (Sigma-Aldrich) and then in water for 1 min. This was followed by incubation of explants with ethanol at concentration of 70% then 95% and finally 100% for 2 min each. After blotting excess ethanol, gastric explants were incubated for 15 min with xylene and mounted with coverslip using Eukitt mounting media (EMS, Hatfield, PA, USA). Finally, explants were left overnight to dry before examination of tissue organization under the microscope (Leitz DMRB microscope (Leïca), equipped with Leïca DFC 450C camera). Quantification of the release of LDH was also used in addition to microscopic observations to evaluate the impact of peptides on human gastric explants. Briefly, after 2, 4 or 8 h of incubation of the explants with the peptides, the supernatants of the wells were collected and stored at -80 °C before the LDH assay. The LDH activity was measured using previously described protocol with minor changes. Briefly, 50 µL of supernatants obtained from explants were mixed with 200 µL of Tris-Lactate buffer (containing Tris HCl at 86 mM, L-Lactate at 56 mM and KCl at 172 mM, pH 9.3, all from Sigma-Aldrich) and 20 µL of NAD (at 172 mM, Sigma-Aldrich) into well of 96-wells plates. Increase in OD339nm was then measured at 30 °C after 0, 1, 5, and 10 min using microplate reader (Synergy Mx, Biotek). […]

Series [2] has as its system human gastric explants. Description: Ex vivo toxicity assay, histological examination (H&E) of human gastric explants. Format: cell-based. As to conditions: 2, 4 or 8 h; peptides 100 µM, CTAB 300 µM; H&E staining. The method, then: To further evaluate the innocuity of the peptides, ex vivo experiments were performed using human explants as previously described. Briefly, human gastric tissue samples were obtained from patients undergoing surgery at the Hospital Laveran (Marseille, France), unit of gastrointestinal surgery according to a collaborative clinical transfer project. The procedures were approved by the French ethic committee (CODECOH n° DC-2019-3402). All patients agreed for the use of their tissues for research purposes. Samples were taken from healthy patients during sleeve gastrectomy from macroscopically unaffected area as identified by the surgeons. After resection, the specimens were placed in ice-cold oxygenated sterile DMEM solution containing 1% streptomycin/penicillin solution and 50 μg/mL gentamycin and were directly transferred to the laboratory within 15 min on ice. Gastric tissues were extensively washed and maintained in ice-cold culture media containing 1% streptomycin/penicillin solution and 50 μg/mL gentamycin. […] Quantification of the release of LDH was also used in addition to microscopic observations to evaluate the impact of peptides on human gastric explants. […] The LDH activity was measured using previously described protocol with minor changes. […] Increase in OD339nm was then measured at 30 °C after 0, 1, 5, and 10 min using microplate reader (Synergy Mx, Biotek). […]

SMILES strings stand for the structures.

With `CCCCCCCCCCCCCCCC[N+](C)(C)C` [CTAB, cetyl-trimethylammonium bromide, reference compound], the LDH release worked out at 81.1% in the series with human gastric explants [1] (2 h), 90.3% in the series on human gastric explants [1] (4 h) and 100% in the series with human gastric explants [1] (8 h). The “tissue organization by microscopic observation” value in the series on human gastric explants [2] is given as “major alterations of the tissue architecture”.

Values taken from PMC6843786, “Temporin-SHa and Its Analogs as Potential Candidates for the Treatment of Helicobacter pylori” (Biomolecules, 2019).
